Earlier results on one compound are cited in patent US20060078541A1, “Method and formula for stem cells' stimulation, targeting release, trafficking and homing” (priority 2004, published 2006).

For the data set the following is noted: in vivo.

As for `[Cs+]` [Cesium ions], the assimilated is ~100%. Also, under “human”, the biological half life is 50-60 days.
